Test results from US11214779B2, “Activatable CRISPR/CAS9 for spatial and temporal control of genome editing” (University of Pittsburgh—Of the Commonwealth System of …, priority 2015, dated 2022).

Tested on: pIRG dual reporter in HEK 293T cells
Experiment: Small molecule activation of Cas9-OABK in live cells (DsRed/EGFP dual reporter assay)
Assay type: cell-based, human
Conditions: for Concentration dependence of EGFP expression (activation of gene editing): varying concentrations (0-500 μM) of phosphine, Cas9-OABK
Procedure: HEK 293T cells were seeded into a 96-well cell culture microplate (Greiner), and incubated overnight in DMEM growth media supplemented with 10% FBS and 1% penicillin/streptomycin at 37° C. in 5% CO2 humidified atmosphere. Before transfection, media was replaced with antibiotics-free DMEM supplemented with or without OABK (0.25 mM). Quadruple transfections were carried out with linear PEI using pMbOABKRS-wtCas9 or pMbOABKRS-Cas9-K866TAG, p4CMVE-U6-PylT (Gautier et al., J Am Chem Soc 132, 4086-4088, 2010), gRNA plasmids (Hemphill et al., J Am Chem Soc 137, 5642-5645, 2015), and pRG dual reporter plasmid ((Hemphill et al., J Am Chem Soc 137, 5642-5645, 2015)) (100 ng of each). After a 24 h incubation, cells were washed with fresh DMEM and incubated for 2 h. For regulating gene editing in live cells, HEK 293T cells were treated with 5 (0.5 mM) or without 5. After overnight incubation, media was replaced with DMEM without phenol red, and cells were imaged on a Zeiss Observer Z1 microscope (10× objective, NA 0.8 plan-apochromat) with EGFP BP470/40; Em: BP525/50) and DsRed BP550/25; Em: BP605/70) filter cubes. Fluorescent cell counting was performed on a Nikon A1 confocal microscope (10× objective) and analyzed using Elements software.
The function of Cas9-OABK in the absence and presence of phosphine derivatives 5 and 6 (see FIG. 14) was investigated using a DsRed/EGFP dual reporter assay (FIG. 15A). […] Once Cas9-OABK is activated by the small molecule phosphine, the complex of functional Cas9 and gRNAs induces excision of the DsRed-terminator cassette, followed by NHEJ repair, and leading to EGFP expression.

| Compound | Concentration dependence of EGFP expression (activation of gene editing) | Effective concentration of phosphine for activation of Cas9-OABK (live HEK 293T cells, concentrations 0-500 μM tested) |
| --- | --- | --- |
| O=C(O)c1ccccc1P(c1ccccc1)c1ccccc1 [compound 5, 2-(diphenylphosphino)benzoic acid] | dose-dependent | – |
| NC(=O)c1ccccc1P(c1ccccc1)c1ccccc1 [compound 6, 2-(diphenylphosphino)benzamide] | dose-dependent | 25 µM |
